Experimental data taken from paper PMC8073005, “Antifungal Activity and DNA Topoisomerase Inhibition of Hydrolysable Tannins from Punica granatum L” (International Journal of Molecular Sciences, 2021).

Columns and labels:
DNA topoisomerase I = biological target: DNA topoisomerase I; parameters: method as in PMID 1324981; conditions: reported; cited from earlier work
[1] = test system: Alternaria alternata AL19; assay: MIC, micro-spectrophotometric growth assay (phytopathogens); type: cell-based; conditions: Alternaria alternata AL19; PDB, 24 °C, dark; imazalil at label dose; read-out: Minimum inhibitory concentration (MIC)
Botrytis cinerea B2 = assay: as above; type: cell-based; conditions: Botrytis cinerea B2; PDB, 24 °C, dark; imazalil at label dose; read-out: Minimum inhibitory concentration (MIC)
[2] = test system: Colletotrichum acutatum s.s. M146-2; assay: as above; type: cell-based, Colletotrichum acutatum sensu stricto
Coniella granati M0_C2 = assay: as above; type: cell-based
[3] = test system: Candida albicans ATCC 10321; assay: MIC, broth microdilution (human pathogens); type: cell-based; conditions: Candida albicans, ATCC10321, 48 h, read-out: Minimum inhibitory concentration (MIC)
Candida albicans SC 5314 [4] = assay: MIC, broth microdilution (human pathogens); type: cell-based; conditions: Candida albicans, SC5314, 48 h, read-out: Minimum inhibitory concentration (MIC)
Candida albicans 1 = assay: MIC, broth microdilution (human pathogens); type: cell-based; conditions: Candida albicans, 1, 48 h, read-out: Minimum inhibitory concentration (MIC)
Candida albicans 2 = assay: MIC, broth microdilution (human pathogens); type: cell-based; conditions: Candida albicans, 2, 48 h, read-out: Minimum inhibitory concentration (MIC)
Candida albicans H = assay: MIC, broth microdilution (human pathogens); type: cell-based; conditions: Candida albicans, 48 h, read-out: Minimum inhibitory concentration (MIC)
Candida albicans 40 = assay: MIC, broth microdilution (human pathogens); type: cell-based; conditions: Candida albicans, 40, 48 h, read-out: Minimum inhibitory concentration (MIC)
Candida albicans 41 = assay: MIC, broth microdilution (human pathogens); type: cell-based; conditions: Candida albicans, 41, 48 h, read-out: Minimum inhibitory concentration (MIC)
Candida albicans 44 = assay: MIC, broth microdilution (human pathogens); type: cell-based; conditions: Candida albicans, 44, 48 h, read-out: Minimum inhibitory concentration (MIC)
Candida parapsilosis = assay: MIC, broth microdilution (human pathogens); type: cell-based; conditions: Lodderomyces parapsilosis, 48 h, read-out: Minimum inhibitory concentration (MIC)
Candida parapsilosis 7 = assay: MIC, broth microdilution (human pathogens); type: cell-based; conditions: Lodderomyces parapsilosis, 7, 48 h, read-out: Minimum inhibitory concentration (MIC)
Candida zeylanoides 33 = assay: MIC, broth microdilution (human pathogens); type: cell-based; conditions: Dujonia zeylanoides, 33, 48 h, read-out: Minimum inhibitory concentration (MIC)
[5] = test system: Saccharomyces cerevisiae 42; assay: MIC, broth microdilution (human pathogens); type: cell-based; conditions: Saccharomyces cerevisiae, 42, 48 h, read-out: Minimum inhibitory concentration (MIC)
[6] = test system: Aspergillus brasiliensis ATCC 16404; assay: MIC, broth microdilution (human pathogens); type: cell-based; conditions: Aspergillus brasiliensis, ATCC16404, 48 h, read-out: Minimum inhibitory concentration (MIC)
Aspergillus candidus 3 = assay: MIC, broth microdilution (human pathogens); type: cell-based; conditions: Aspergillus candidus, 3, 48 h, read-out: Minimum inhibitory concentration (MIC)
Aspergillus candidus 25 = assay: MIC, broth microdilution (human pathogens); type: cell-based; conditions: Aspergillus candidus, 25, 48 h, read-out: Minimum inhibitory concentration (MIC)
[7] = test system: Cryptococcus neoformans B 3501; assay: MIC, broth microdilution (human pathogens); type: cell-based; conditions: Cryptococcus neoformans, B3501, 48 h, read-out: Minimum inhibitory concentration (MIC)
[8] = test system: Cryptococcus neoformans ATCC 11240; assay: MIC, broth microdilution (human pathogens); type: cell-based; conditions: Cryptococcus neoformans, ATCC11240, 48 h, read-out: Minimum inhibitory concentration (MIC)
Cryptococcus 67 = assay: MIC, broth microdilution (human pathogens); type: cell-based; conditions: Cryptococcus, 67, 48 h, read-out: Minimum inhibitory concentration (MIC)
[9] = test system: Cryptococcus var. grubii H99 serotype A; assay: MIC, broth microdilution (human pathogens); type: cell-based; conditions: Cryptococcus, 48 h, read-out: Minimum inhibitory concentration (MIC)
[10] = biological target: T1, topoisomerase I from Candida albicans (Candida albicans, UniProt Q00313); assay: Topoisomerase I supercoiled DNA relaxation inhibition; type: biochemical
T1 sequence (Q00313 1-778): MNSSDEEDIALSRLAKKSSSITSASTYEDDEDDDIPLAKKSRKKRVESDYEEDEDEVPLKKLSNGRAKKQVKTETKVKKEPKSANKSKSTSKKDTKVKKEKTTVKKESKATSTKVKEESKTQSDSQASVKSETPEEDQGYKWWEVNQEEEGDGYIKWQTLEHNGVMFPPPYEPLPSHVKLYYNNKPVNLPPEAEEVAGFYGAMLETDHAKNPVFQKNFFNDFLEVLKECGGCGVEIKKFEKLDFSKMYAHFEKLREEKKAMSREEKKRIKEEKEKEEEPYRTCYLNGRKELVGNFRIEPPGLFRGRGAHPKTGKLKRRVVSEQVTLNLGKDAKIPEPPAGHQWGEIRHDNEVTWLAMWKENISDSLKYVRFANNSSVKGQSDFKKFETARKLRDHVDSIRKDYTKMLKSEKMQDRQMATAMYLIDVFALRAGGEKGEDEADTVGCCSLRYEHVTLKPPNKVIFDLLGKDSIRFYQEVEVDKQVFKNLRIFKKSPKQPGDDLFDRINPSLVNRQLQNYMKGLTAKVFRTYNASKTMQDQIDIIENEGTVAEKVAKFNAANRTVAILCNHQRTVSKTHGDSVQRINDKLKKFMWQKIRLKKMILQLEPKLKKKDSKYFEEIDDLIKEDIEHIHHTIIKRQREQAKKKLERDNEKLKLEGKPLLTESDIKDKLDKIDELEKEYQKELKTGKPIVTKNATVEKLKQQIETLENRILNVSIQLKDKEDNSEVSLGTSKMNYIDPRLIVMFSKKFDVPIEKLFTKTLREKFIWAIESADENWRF

Candida strains = assay: Agar Disk Diffusion Assay, Candida strains; type: cell-based; conditions: 100 µg
[11] = test system: other genera tested (other fungi strains); assay: Agar Disk Diffusion Assay, other genera; type: cell-based; conditions: 100 µg
Description: The antifungal activity of pomegranate compounds was evaluated against 19 clinically isolated fungal strains, including nine belonging to Candida albicans species, two belonging to Aspergillus genus, one belonging to Cryptococcus genus, and one Saccharomyces cerevisiae. The C. albicans strains were isolated on CHROMID agar, Aspergillus and Cryptococcus genus were isolated on SDA-CAF and one Saccharomyces cerevisiae on SDA. All the isolates were confirmed by matrix-assisted laser desorption ionization (MALDI) time-of-flight mass spectrometry (TOF/MS). Strains from the American Type Culture Collection (ATCC) were included. All strains were maintained in SDB with 20% (w/v) glycerol at −80 °C until use and sub-cultured in SDA before each test.
The preliminary determination of the antifungal activity of the target compounds (punicalagin, punicalin, ellagic acid, and gallic acid) from pomegranate was carried out by means of the agar disk diffusion assay, according to the standard procedure of the Clinical and Laboratory Standards Institute, with slight modifications. Plates containing SDA were uniformly spread with 100 μL of 10^3 conidia/mL of each strain suspension. […] Disks containing fluconazole (25 μg), amphotericin B (25 μg) and DMSO (20 μL) were used as the positive and the negative control, respectively. The antifungal activity of pomegranate compounds was evaluated by measuring the diameter of the clear inhibition zone formed right around the disks after 48 h incubation at 30 ± 1 °C. The experiment was carried out in triplicate.

Candida albicans SC 5314 [12] = assay: Time-kill curves; type: cell-based; conditions: C. albicans SC 5314; compound at its MIC value; 0–96 h
[13] = test system: C. albicans 1 (clinically isolated strain); assay: Time-kill curves; type: cell-based, Candida albicans; conditions: compound at its MIC value, 0–96 h

With `O=C(O)C[C@@H]1C(=O)O[C@H]2[C@@H]3OC(=O)c4cc(O)c(O)c(O)c4-c4c(cc(O)c(O)c4O)C(=O)OC[C@H]2O[C@@H](OC(=O)c2cc(O)c(O)c(O)c2)[C@@H]3OC(=O)c2cc(O)c(O)c3c2[C@H]1[C@H](O)C(=O)O3` [CHEMBL525240, Chebulagic acid] as the compound, how does the IC50 (DNA topoisomerase I) read?
The IC50 was 0.05 µM.

With `O=C1O[C@H]2[C@@H]3OC(=O)c4cc(O)c(O)c(O)c4-c4c(O)c(O)c5oc(=O)c6c(c(O)c(O)c7oc(=O)c4c5c76)-c4c(cc(O)c(O)c4O)C(=O)OC[C@H]3OC(O)[C@@H]2OC(=O)c2cc(O)c(O)c(O)c2-c2c1cc(O)c(O)c2O` (mixture of isomers) [Punicalagin, punicalagin] as the compound, how does the MIC [1] read?
Its MIC is 92.2 µM.

And the MIC (Botrytis cinerea B2)?
The MIC was 92.2 µM.

What about the growth reduction ([2]; C. acutatum s.s., at 48 h) of the same compound?
Its growth reduction is 66%.

And the MIC ([2]; Colletotrichum acutatum s.s. M146-2, PDB, 24 °C, dark, imazalil at label dose, read-out: Minimum inhibitory concentration (MIC))?
The MIC was 184.4 µM.

And the growth reduction (Coniella granati M0_C2; C. granati, 48 h of incubation)?
Its growth reduction is 83%.

What about the MIC (Coniella granati M0_C2; Coniella granati M0_C2, PDB, 24 °C, dark, imazalil at label dose, read-out: Minimum inhibitory concentration (MIC)) of the same compound?
The MIC was 184.4 µM.

What about the MIC [3] of the same compound?
Its MIC is 0.7 µM.

What about the MIC (Candida albicans SC 5314 [4]) of the same compound?
Its MIC is 0.7 µM.

And the MIC (Candida albicans 1)?
Its MIC is 1.4 µM.

What about the MIC (Candida albicans 2) of the same compound?
The MIC was 1.4 µM.

And the MIC (Candida albicans H)?
The MIC was 92.2 µM.

And the MIC (Candida albicans 40)?
The MIC was 5.5 µM.

What about the MIC (Candida albicans 41) of the same compound?
Its MIC is 92.2 µM.

And the MIC (Candida albicans 44)?
Its MIC is 92.2 µM.

What about the MIC (Candida parapsilosis) of the same compound?
Its MIC is 0.7 µM.

What about the MIC (Candida parapsilosis 7) of the same compound?
The MIC was 5.5 µM.

What about the MIC (Candida zeylanoides 33) of the same compound?
The MIC was 92.2 µM.

And the MIC [5]?
The MIC was 1.4 µM.

And the MIC [6]?
Its MIC is 2.8 µM.

What about the MIC (Aspergillus candidus 3) of the same compound?
The MIC was 92.2 µM.

What about the MIC (Aspergillus candidus 25) of the same compound?
Its MIC is 92.2 µM.

What about the MIC [7] of the same compound?
Its MIC is 46.1 µM.

And the MIC [8]?
Its MIC is 23 µM.

And the MIC (Cryptococcus 67)?
The MIC was 92.2 µM.

And the MIC [9]?
Its MIC is 92.2 µM.

And the IC50 [10]?
Its IC50 is 9 ± 1.2 µM.

And the “share of Candida strains with inhibition zone from 21 to 30 mm” value (Candida strains)?
Its value is 82%.

What about the “share of other genera tested with inhibition zone from 21 to 30 mm” value [11] of the same compound?
Its value is 63%.

And the “time-kill curve (susceptibility time-course)” value (Candida albicans SC 5314 [12])?
The value was “major reduction in the number of C. albicans SC 5314 cells”.

What about the “time-kill curve (susceptibility time-course)” value [13] of the same compound?
The value was “preserved the antifungal activity until the end of the test (96 h)”.
